According to ChEMBL document CHEMBL5620345, “Metal binding pharmacophore click-derived discovery of new broad-spectrum metallo-β-lactamase inhibitors” (Eur J Med Chem, 2023):
pIC50: −log10 of the molar value.

Columns and labels:
[1] = Inhibition of recombinant his tagged IMP1 (unknown origin) expressed in Escherichia coli (DE3) cells using FC5 as substrate by microplate reader assay
[2] = Inhibition of recombinant NDM1 (unknown origin) expressed in Escherichia coli (DE3) cells using FC5 as substrate by microplate reader assay
[3] = Inhibition of recombinant VIM-1 (unknown origin) expressed in Escherichia coli (DE3) cells using FC5 as substrate by microplate reader assay
[4] = Inhibition of recombinant his tagged VIM-2 (unknown origin) expressed in Escherichia coli (DE3) cells using FC5 as substrate by microplate reader assay
[5] = Inhibition of recombinant VIM-5 (unknown origin) expressed in Escherichia coli (DE3) cells using FC5 as substrate by microplate reader assay

pIC50 [1]	pIC50 [2]	pIC50 [3]	pIC50 [4]	pIC50 [5]	Structure (SMILES)
4.88	6.74	7.39	8.40	–	NCCN[C@H]1CC[C@H](CC(=O)N[C@H]2Cc3cccc(C(=O)O)c3OB2O)CC1
< 4.00	< 4.00	< 4.00	< 4.00	< 4.00	O=C(O)c1cccc(-n2cc(-c3ccccc3)nn2)c1
4.62	4.71	5.74	6.54	7.07	NCC(=O)Nc1cccc(-c2cn(-c3cccc(CP(=O)(O)O)c3)nn2)c1
5.36	4.61	5.26	6.11	7.35	Cc1ccc(-c2cn(-c3cccc(CP(=O)(O)O)c3)nn2)cc1
< 4.00	< 4.00	< 4.00	< 4.00	< 4.00	Nc1c(C(=O)O)cccc1-n1cc(-c2ccccc2)nn1
5.18	4.23	4.91	5.70	6.96	O=C(NCc1cccc(-c2cn(-c3cccc(CP(=O)(O)O)c3)nn2)c1)C(F)(F)F
< 4.00	< 4.00	< 4.00	< 4.00	< 4.00	NCc1cn(-c2ccccc2CP(=O)(O)O)nn1
4.86	< 4.00	4.71	< 4.00	< 4.00	O=C(O)c1ccccc1-c1cn(-c2cccc(C(=O)O)c2C(=O)O)nn1
5.49	4.82	5.23	6.77	6.55	Nc1ccc(-c2cn(-c3cccc(CP(=O)(O)O)c3)nn2)cc1
< 4.00	4.44	< 4.00	4.19	4.83	OB(O)c1cccc(-c2cn(Cc3ccccc3)nn2)c1
5.19	< 4.00	< 4.00	4.43	4.21	Nc1ccccc1-c1cn(-c2cccc(C(=O)O)c2C(=O)O)nn1
5.93	< 4.00	4.84	4.93	< 4.00	Nc1cccc(-c2cn(-c3cccc(C(=O)O)c3C(=O)O)nn2)c1
5.05	< 4.00	< 4.00	4.11	< 4.00	CCCCc1cn(-c2cccc(C(=O)O)c2C(=O)O)nn1
4.09	< 4.00	5.20	6.06	5.83	O=P(O)(O)Cc1ccccc1-n1cc(-c2cccc(Cl)c2)nn1
< 4.00	< 4.00	< 4.00	< 4.00	< 4.00	OB(O)c1cccc(-c2cn(-c3ccccc3)nn2)c1
5.66	4.61	5.02	6.54	7.20	O=P(O)(O)Cc1cccc(-n2cc(-c3ccc(F)cc3)nn2)c1
5.74	< 4.00	< 4.00	4.17	< 4.00	NCCc1ccc(-c2cn(-c3cccc(C(=O)O)c3C(=O)O)nn2)cc1
< 4.00	< 4.00	< 4.00	< 4.00	< 4.00	O=C(O)c1cccc(-n2cc(-c3ccccc3)nn2)c1[N+](=O)[O-]
5.19	5.12	5.37	6.77	7.37	COc1ccc(-c2cn(-c3cccc(CP(=O)(O)O)c3)nn2)cc1
< 4.00	< 4.00	4.80	5.79	5.82	O=P(O)(O)Cc1ccc(-n2cc(-c3ccccc3)nn2)cc1
< 4.00	< 4.00	5.00	5.83	5.79	O=P(O)(O)Cc1ccccc1-n1cc(-c2ccccc2)nn1
< 4.00	< 4.00	< 4.00	4.28	< 4.00	CC(C)(C)OC(=O)NCCn1cc(-c2cccc(B(O)O)c2)nn1
4.91	4.22	5.06	6.08	7.03	COc1cccc(-c2cn(-c3cccc(CP(=O)(O)O)c3)nn2)c1
5.08	< 4.00	< 4.00	4.88	< 4.00	O=C(O)c1cccc(-n2cc(-c3ccccc3)nn2)c1C(=O)O
5.29	< 4.00	< 4.00	4.99	< 4.00	Nc1ccc(-c2cn(-c3cccc(C(=O)O)c3C(=O)O)nn2)cc1
< 4.00	< 4.00	< 4.00	4.47	5.20	O=C(CCn1cc(-c2cccc(B(O)O)c2)nn1)Nc1ccccc1
4.09	< 4.00	< 4.00	< 4.00	< 4.00	NCc1cn(-c2cccc(C(=O)O)c2C(=O)O)nn1

pIC50 [1]	pIC50 [2]	pIC50 [3]	pIC50 [4]	pIC50 [5]	Structure (SMILES)
< 4.00	4.54	< 4.00	4.62	4.83	OB(O)c1cccc(-c2cn(-c3cccc(Cl)c3)nn2)c1
5.22	4.56	5.44	6.19	7.30	O=P(O)(O)Cc1cccc(-n2cc(-c3ccccc3)nn2)c1
< 4.00	4.17	< 4.00	4.52	4.31	O=C(CCn1cc(-c2cccc(B(O)O)c2)nn1)Nc1cccc(Cl)c1
< 4.00	< 4.00	4.66	5.31	5.85	NCc1cccc(-c2cn(-c3ccccc3CP(=O)(O)O)nn2)c1
< 4.00	< 4.00	4.86	5.27	4.49	CCCCc1cn(-c2ccccc2CP(=O)(O)O)nn1
< 4.00	4.02	4.57	5.95	6.42	Nc1cccc(-c2cn(-c3ccccc3CP(=O)(O)O)nn2)c1
5.45	< 4.00	4.42	4.27	4.14	O=C(O)c1cccc(-n2cc(CNc3ccccc3)nn2)c1C(=O)O
< 4.00	< 4.00	4.21	< 4.00	4.22	O=C(O)c1cccc(-n2cc(-c3ccccc3)nn2)c1O
< 4.00	4.30	< 4.00	4.74	< 4.00	Nc1cccc(-n2cc(-c3cccc(B(O)O)c3)nn2)c1
5.08	4.40	5.15	6.36	6.74	O=P(O)(O)Cc1cccc(-n2cc(-c3ccc(Cl)cc3)nn2)c1
4.39	< 4.00	< 4.00	< 4.00	< 4.00	O=C(O)c1cccc(-n2cc(CCO)nn2)c1C(=O)O
4.33	< 4.00	< 4.00	4.02	4.22	O=C(O)c1ccc(-n2cc(-c3ccccc3)nn2)cc1C(=O)O
5.04	< 4.00	4.15	< 4.00	4.06	O=C(O)c1cccc(-n2cc(Cc3ccccc3)nn2)c1C(=O)O
4.95	4.62	5.30	6.18	7.80	O=P(O)(O)Cc1cccc(-n2cc(-c3cccc(Br)c3)nn2)c1
< 4.00	< 4.00	< 4.00	< 4.00	< 4.00	OCCn1cc(-c2cccc(B(O)O)c2)nn1
4.70	< 4.00	< 4.00	< 4.00	< 4.00	NCc1cccc(-c2cn(-c3cccc(C(=O)O)c3C(=O)O)nn2)c1
< 4.00	< 4.00	5.18	5.47	5.72	Cc1cccc(-c2cn(-c3ccccc3CP(=O)(O)O)nn2)c1
5.74	< 4.00	< 4.00	4.70	4.54	Cc1cccc(-c2cn(-c3cccc(C(=O)O)c3C(=O)O)nn2)c1
4.43	4.37	5.11	5.59	6.55	NCc1cccc(-c2cn(-c3cccc(CP(=O)(O)O)c3)nn2)c1
5.55	< 4.00	4.82	4.69	4.49	O=C(O)c1cccc(-n2cc(-c3cccc(Cl)c3)nn2)c1C(=O)O
4.26	4.13	4.47	5.65	7.55	O=C(NCc1cn(-c2cccc(CP(=O)(O)O)c2)nn1)C(F)(F)F
5.07	4.59	5.01	6.19	7.00	O=P(O)(O)Cc1cccc(-n2cc(-c3ccccc3F)nn2)c1
5.14	< 4.00	5.16	6.62	7.51	O=P(O)(O)Cc1cccc(-n2cc(-c3cccc(Cl)c3)nn2)c1
< 4.00	4.08	4.34	5.38	4.83	O=P(O)(O)Cc1ccccc1-n1cc(CNc2ccccc2)nn1
5.17	4.46	5.18	6.01	7.10	O=P(O)(O)Cc1cccc(-n2cc(-c3cccc(F)c3)nn2)c1
4.53	< 4.00	< 4.00	4.26	4.03	O=C(O)c1cn(-c2cccc(C(=O)O)c2C(=O)O)nn1
